The Ki is the equilibrium dissociation constant of an inhibitor or competing ligand from its target. As a reminder, the IC50 is the midpoint of a concentration-inhibition curve. The EC50 is the concentration at which the effect is half-maximal.

For one data set, the system named is Phosphorylation of STAT5. The data set is described as follows: STAT5 phosphorylation immunoblot in ruxolitinib-resistant cells. It is filed as cell-based. The settings on record: ruxolitinib 0.5-2 μM. In general terms: Immunoblotting shows a protein as a band on a membrane.
The target in the next data set is PIM 3 (Homo sapiens, UniProt Q86V86). The data set is described as follows: PIM kinase biochemical profile (Ki).
The next data set addresses Flt3 (Homo sapiens, UniProt P36888). The data set is described as follows: Flt3 inhibition (IC50). The class given is biochemical.
The next data set has as its system dogs. Description: Non-GLP toxicology studies in dogs (7-day repeat). It is filed as in vivo. As for the experimental part:
(§1) Dose calculations were determined from GLP toxicology studies in rats and non-GLP toxicology studies in dogs.
In dogs, the highest non-severely toxic dose was not observed in 7-day repeat studies at doses as high as 200 mg/kg, which equates to 7400 mg per person or greater, calculated as: […]

In a further data set the test system is parental BA/F3 cells. Description: Cell proliferation. It is filed as cell-based, murine.
The next data set concerns BA/F3 MPL W515L cells. The data set is described as follows: Cell proliferation. It is filed as cell-based, murine. Conditions: 0.25-1 μM. The source says:
(§2) These animals rapidly develop marked thrombocytosis and leukocytosis. At the time of sacrifice, MPL W515L expressing mice show splenomegaly and bone marrow fibrosis.

In a further data set the test system is SET-2 cells. Description: Cell proliferation by viable cell counts. It is filed as cell-based. Conditions: 5 days.
Another data set addresses PIM 1 (Homo sapiens, UniProt P11309). The data set is described as follows: PIM kinase biochemical profile (Ki).
A further data set concerns phospho-BAD. The data set is described as follows: Reduction of phospho-BAD (PIM-1 biomarker). The class given is cell-based. Conditions: compared to Compound A. The text has this: The results of this assay are illustrated as a plot of the % of the control against the compound concentration (FIG. 15).
Data set [1] deals with homozygous JAK2 V617F knock-in mouse model of MF. The data set is described as follows: Homozygous JAK2 V617F knock-in mouse model of MF. The class given is in vivo. As for the experimental part:
Bone marrow cells from homozygous JAK2 V617F knock-in mice were transplanted into lethally irradiated C57BL/6 recipients to obtain a cohort of MF mice with similar age. […] All mice were treated for 6 weeks.

In data set [2] the test system is JAK2 V617F-positive HEL cells. The data set is described as follows: Cell proliferation by viable cell counts. The class given is cell-based, human. The settings on record: 5 days.
Data set [3] deals with BA/F3-EpoR-JAK2 V617F cells. Description: Cell proliferation by viable cell counts. Conditions: Compound 1, 5 days. It is filed as cell-based, murine. Set-up: dose or concentration left out as unconfirmed.
In the next data set the test system is rats. Description: GLP toxicology studies in rats. It is filed as in vivo, rat. As for the experimental part:
as §1

For data set [4], the system named is MPL mutant (MPL W515L) mice. Description: MPL W515L transplantation mouse model. The class given is in vivo.
Text: as §2

Data set [5] has as its system MPN patient CD34+ hematopoietic progenitor cells. The data set is described as follows: Hematopoietic progenitor colony assay in methylcellulose. It is filed as cell-based, human. Conditions: 1-2 μM, colonies counted after 14 days. The text has this: (§3) Hematopoietic progenitor colonies were counted after 14 days.
Data set [6] has as its system healthy control CD34+ cells. The data set is described as above. It is filed as cell-based, human. The settings on record: 1-2 μM, 14 days.
Text: as §3

Data set [7] concerns BA/F3 cells expressing wild type JAK2. The data set is described as follows: Cell proliferation by viable cell counts. The settings on record: wild-type JAK2, higher concentrations, 5 days. The class given is cell-based, murine.
In data set [8] the test system is JAK2 V617F-positive UKE-1 cells. The data set is described as follows: Cell proliferation by viable cell counts. Conditions: 5 days. It is filed as cell-based, human.
Data set [9] concerns BA/F3 cells expressing wild type JAK2. The data set is described as follows: Apoptosis by Annexin V staining and flow cytometry. It is filed as cell-based. The settings on record: 48 hours after treatment. Background: In flow cytometry, cells or beads pass a laser one at a time.
The subject of data set [10] is ruxolitinib-resistant BA/F3-EpoR-JAK2 V617F cells. Description: Proliferation of ruxolitinib-resistant cells by viable cell counts. The class given is cell-based. The settings on record: ruxolitinib 0.5-2 μM or Compound 1 0.25-1 μM, 5 days.
Data set [11] relates to HSC maintenance, TNFα and WNT signaling pathways. The data set is described as follows: RNA-sequencing of LSK cells from treated homozygous JAK2 V617F mice. The settings on record: purified LSK cells, compared with vehicle. It is filed as in vivo, mouse.
A further data set is described as follows: Metabolic stability. The class given is in vitro ADME. Conditions: compared to Compound A.
Data set [12] concerns PC3 prostate adenocarcinoma xenograft. The data set is described as follows: PC3 prostate adenocarcinoma mouse xenograft model. It is filed as in vivo.
In data set [13] the test system is HEL, BA/F3-EpoR-JAK2 V617F, UKE-1 and SET-2 cells expressing JAK2 V617F. Description: Apoptosis by Annexin V staining and flow cytometry. It is filed as cell-based. Conditions: 48 hours after treatment, JAK2 V617F-expressing cell lines.
The target of a further data set is PIM 2 (Homo sapiens, UniProt Q9P1W9). The data set is described as follows: PIM kinase biochemical profile (Ki).
Another data set deals with PC3 cells. The data set is described as follows: Colony formation assay of prostate adenocarcinoma. The settings on record: Homo sapiens, PC-3; RPMI, pyruvate, 0.5% FBS; read-out: EC50 against PC3 cells (colony formation). The class given is cell-based. The protocol:
PC3 cells were seeded in Roswell Park Memorial Institute (RPMI) media with pyruvate and 10% fetal bovine serum (FBS).

Where [14] appears, read: Compound 1 150 mg/kg, ruxolitinib 60 mg/kg, oral gavage once daily, 6 weeks.

Chain of Flt3 (P36888 27-993, species assumed): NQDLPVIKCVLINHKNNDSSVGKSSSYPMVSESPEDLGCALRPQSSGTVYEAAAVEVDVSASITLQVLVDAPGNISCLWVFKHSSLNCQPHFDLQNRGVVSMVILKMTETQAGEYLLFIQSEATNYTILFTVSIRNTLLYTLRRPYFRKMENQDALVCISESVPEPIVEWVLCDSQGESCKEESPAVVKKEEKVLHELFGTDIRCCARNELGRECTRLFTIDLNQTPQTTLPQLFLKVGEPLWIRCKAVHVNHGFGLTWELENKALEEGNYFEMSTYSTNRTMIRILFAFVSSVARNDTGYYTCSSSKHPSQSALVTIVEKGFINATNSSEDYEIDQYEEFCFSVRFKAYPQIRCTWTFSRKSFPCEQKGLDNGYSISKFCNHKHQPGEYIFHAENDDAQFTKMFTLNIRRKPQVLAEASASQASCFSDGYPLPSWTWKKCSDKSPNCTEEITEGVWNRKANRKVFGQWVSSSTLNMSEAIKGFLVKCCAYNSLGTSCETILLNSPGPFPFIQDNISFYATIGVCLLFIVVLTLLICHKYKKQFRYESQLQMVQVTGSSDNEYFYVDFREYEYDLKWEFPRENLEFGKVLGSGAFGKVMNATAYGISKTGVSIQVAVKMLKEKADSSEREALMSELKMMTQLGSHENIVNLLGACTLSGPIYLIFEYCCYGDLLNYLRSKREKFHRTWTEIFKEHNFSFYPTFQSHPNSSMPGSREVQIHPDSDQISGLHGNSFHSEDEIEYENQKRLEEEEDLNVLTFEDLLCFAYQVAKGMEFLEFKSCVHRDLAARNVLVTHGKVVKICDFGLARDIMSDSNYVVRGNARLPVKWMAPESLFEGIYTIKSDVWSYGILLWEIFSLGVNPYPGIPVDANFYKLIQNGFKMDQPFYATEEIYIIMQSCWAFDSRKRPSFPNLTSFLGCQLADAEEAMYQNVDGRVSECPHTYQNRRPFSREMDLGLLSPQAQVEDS
Chain of PIM 2 (Q9P1W9 whole entry, species assumed): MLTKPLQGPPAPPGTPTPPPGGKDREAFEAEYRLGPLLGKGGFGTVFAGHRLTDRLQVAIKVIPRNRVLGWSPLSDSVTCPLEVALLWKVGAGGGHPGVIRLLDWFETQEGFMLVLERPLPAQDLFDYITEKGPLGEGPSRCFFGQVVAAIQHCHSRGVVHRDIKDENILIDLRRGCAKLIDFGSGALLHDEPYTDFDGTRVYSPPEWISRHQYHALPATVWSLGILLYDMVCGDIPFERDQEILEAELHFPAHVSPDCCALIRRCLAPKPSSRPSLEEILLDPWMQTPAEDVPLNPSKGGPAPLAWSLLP
Chain of PIM 1 (P11309 whole entry, species assumed): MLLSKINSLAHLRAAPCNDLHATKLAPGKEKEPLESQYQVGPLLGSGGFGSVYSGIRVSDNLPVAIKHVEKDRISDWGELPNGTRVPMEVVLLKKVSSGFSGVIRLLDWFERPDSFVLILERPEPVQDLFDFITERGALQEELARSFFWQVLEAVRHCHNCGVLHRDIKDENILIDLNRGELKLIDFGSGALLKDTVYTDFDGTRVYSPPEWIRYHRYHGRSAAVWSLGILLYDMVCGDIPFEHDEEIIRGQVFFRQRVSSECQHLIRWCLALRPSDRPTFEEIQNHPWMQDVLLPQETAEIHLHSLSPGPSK

Take `N#CC[C@H](C1CCCC1)n1cc(-c2ncnc3[nH]ccc23)cn1` [ruxolitinib]: the “inhibition of STAT5 phosphorylation” value in the data set with Phosphorylation of STAT5 is listed as “not inhibited”.

With `CN1CCC(CNc2ccc3ncc(-c4cccc(OC(F)(F)F)c4)n3n2)CC1` [Compound A, reference compound], on PIM 3, the Ki is 20 nM. This compound showed an IC50 on Flt3 of 3 nM.

With `CC(C)(O)[C@H]1CC[C@H](Nc2ccc3ncc(-c4cccc(C(F)(F)F)c4)n3n2)CC1` [Compound 1, 2-((1R,4R)-4-((3-(3-(trifluoromethyl)phenyl)imidazo[1,2-b]pyridazin-6-yl)amino)cyclohexyl)propan-2-ol], the “highest non-severely toxic dose” value with dogs (dog, 7-day repeat studies, not observed at doses as high as) is at least 200 mg/kg. The “human equivalent of dog highest non-severely toxic dose” value with dogs (per person) is at least 7400 mg. In addition, the concentration reducing proliferation entry with parental BA/F3 cells is listed as “greater than 1 M”. Besides, the reduction of proliferation entry in the data set with BA/F3 MPL W515L cells is listed as “significantly reduced”; in data set [3], around 90%. Besides, the inhibition of proliferation result in the data set on SET-2 cells was “dose dependent inhibition”; in [2], “markedly inhibited”; in data set [7] it was “only modestly inhibited”; in data set [8], “markedly inhibited”. Besides, the Ki at PIM 1 turned out to be 5 nM; at PIM 3, 42 nM; at PIM 2 it was 239 nM. In addition, the “potency at reducing phospho-BAD” value in the data set with phospho-BAD is listed as “more potent”. Also, in [1] (Compound 1 150 mg/kg, ruxolitinib 60 mg/kg, 6 weeks), the “fibrosis in bone marrow and spleen (reticulin staining)” value was “marked reduction of fibrosis”. Moreover, in data set [1] (setting [14]), the neutrophil counts result is recorded as “caused reduction”. Besides, the “peripheral blood white blood cell (WBC) counts” value in [1] (setting [14]) is “caused reduction”. The spleen size result in [1] (homozygous JAK2 V617F mice, versus vehicle) is reported as “significantly reduces”. In addition, the “human equivalent of efficacious dose level in mouse myelofibrosis model (150 mg/kg)” value in data set [1] (per person) turned out to be 925 mg. Also, the “human equivalent of rat severely toxic dose in 10 percent of animals” value in the data set on rats (average per person) is reported as 5286 mg. The “severely toxic dose in 10 percent of animals” value in the data set with rats (rat, GLP toxicology) stood at 500 mg/kg. For the same compound, the splenomegaly result in data set [4] is listed as “significant decrease”. In addition, in [5], the “inhibition of hematopoietic progenitor colonies” value is listed as “significantly inhibited”. Moreover, the “effect on hematopoietic progenitor colonies” value in data set [6] is “minimal effect”. In addition, the “apoptosis (Annexin V)” value in data set [9] was “not in wild type JAK2-expressing BA/F3 cells”; in data set [13], “significant apoptosis”. For the same compound, in [10], the “inhibition of cell proliferation” value was “markedly inhibited”. This compound registered an IC50 against Flt3 of 279 nM. Besides, in data set [11], the “expression of genes relating to HSC maintenance, TNFα and WNT signaling pathways” value is “significantly downregulated”. The metabolic stability entry in the data set “Metabolic stability” is reported as “improved metabolic stability”. For the same compound, the results for the “percentage of tumor growth inhibition (% TGI)” value in data set [12] (125 mg/kg) and in data set [12] (200 mg/kg) were 59% and 40%, respectively. In the data set on PC3 cells, the EC50 came to 143 nM.

These data come from patent publication US20250082634A1, “PIM KINASE INHIBITORS FOR TREATMENT OF MYELOPROLIFERATIVE NEOPLASMS AND FIBROSIS ASSOCIATED WITH CANCER” (Sumitomo Pharma America, Inc., priority 2018, published 2025).
